Values of other authors in patent publication US12062414B1, “System and method for predicting susceptibility of genus Klebsiella to amikacin” (Peking Union Medical College Hospital, Chinese Academy of …, priority 2023, dated 2024).

Test system: carbapenem-resistant Klebsiella pneumoniae
Conditions: isolated from 2014-2017; data from 252/403

Q: Which “resistance rate to amikacin” value does the source give for `NCC[C@H](O)C(=O)N[C@@H]1C[C@H](N)[C@@H](O[C@H]2O[C@H](CN)[C@@H](O)[C@H](O)[C@H]2O)[C@H](O)[C@H]1O[C@H]1O[C@H](CO)[C@@H](O)[C@H](N)[C@H]1O` [amikacin] here?
A: The value was 62.5%.
